Experimental findings from patent US20230250070A1, “DIHYDROOXAZOLE AND THIOUREA DERIVATIVES MODULATING THE NLRP3 INFLAMMASOME PATHWAY” (AC IMMUNE SA, priority 2020, published 2023) are described below.

Test [1] relates to NLRP3 inflammasome pathway. As to the kind of experiment: NLRP3 inflammasome pathway activation assay, MSU stimulation, IL-1β release (AlphaLISA). It counts as cell-based. The conditions noted are these: PMA-differentiated, LPS-primed human monocyte-like cells, MSU 150 µg/ml for 3 h. As to the method:
(§1) The following assays were used to determine the inhibitory activity of test compounds on the NLRP3 inflammasome pathway using common stimuli Nigericin (Invivogen) or monosodium urate crystals (MSU) (Invivogen).
(§2) Human monocyte-like cells were cultured in RPMI-1640 Glutamax medium supplemented with 10% heat inactivated FCS and 50 U/ml penicillin-streptomycin (Life Technologies).
(§3) Human monocyte-like cells were seeded at 75000 per well in a 96-well plate and were differentiated overnight into macrophages with 10 ng/ml PMA (Phorbol Myristate Acetate). The following day, medium containing 10 ng/ml LPS (Lipopolysaccharide) were added. After 3 hours of LPS priming, concentrations of test compound in the range from 100 µM to 6 nM were added 30 min prior to NLRP3 inflammasome pathway stimulation with Nigericin 3.75 µM or MSU 150 µg/ml for 3 h.
(§4) For IL-1β quantification, supernatants were analyzed using AlphaLISA kits according to the manufacturer’s instructions (Perkin Elmer AlphaLISA AL220F). Briefly, in a 384-well OptiPlate™ microplate, 5 µl of sample was mixed, with 20 µl of AlphaLISA Anti-Analyte Acceptor beads (10 µg/mL final) and Biotinylated Antibody Anti-Analyte (1 nM final). Then, incubated 60 minutes at RT, then 25 µL of 2X SA-Donor beads (40 µg/mL final) were added and incubated 30 minutes at RT in the dark. Reading was done using an EnVision-Alpha Reader (PerkinElmer).
(§5) IC50(concentration corresponding to 50% inhibition) were determined using GraphPad Prism 8.
(In general: In Alpha technology, singlet oxygen from a donor bead excites a nearby acceptor bead.)

The test system of test [2] is NLRP3 inflammasome pathway. As to the kind of experiment: NLRP3 inflammasome pathway activation assay, Nigericin stimulation, IL-1β release (AlphaLISA). Format: cell-based. To be noted: PMA-differentiated, LPS-primed human monocyte-like cells, Nigericin 3.75 µM for 3 h. The method, then:
as §1, §2, §3, §4, §5

Some results are limits rather than exact numbers.

Turning to `CCOC(=O)C1(c2cc(C(C)(C)O)on2)OC(Nc2c3c(cc4c2CCC4)CCC3)=NC1C` (racemic) [Example 52, ethyl 2-((1,2,3,5,6,7-hexahydro-s-indacen-4-yl)amino)-5-(5-(2-hydroxypropan-2-yl)isoxazol-3-yl)-4-methyl-4,5-dihydrooxazole-5-carboxylate], the IC50 is 1000 to 10000 nM in test [1] and less than 1000 nM in test [2] (Homo sapiens, 3 h).

For `CCOC(=O)C(O)(CNC(=S)Nc1c2c(cc3c1CCC3)CCC2)c1cc(C(C)(C)O)on1` (racemic) [Example 14, Ethyl 3-(3-(1,2,3,5,6,7-hexahydro-s-indacen-4-yl)thioureido)-2-hydroxy-2-(5-(2-hydroxypropan-2-yl)isoxazol-3-yl)propanoate], the IC50 in test [1] and in test [2] was less than 1000 nM each time.

On to `CCOC(=O)C1(c2ncccn2)CN=C(Nc2c3c(cc4c2CCC4)CCC3)O1` (racemic) [Example 50, ethyl 2-((1,2,3,5,6,7-hexahydro-s-indacen-4-yl)amino)-5-(pyrimidin-2-yl)-4,5-dihydrooxazole-5-carboxylate], for which the IC50 is 1000 to 10000 nM in test [1] and less than 1000 nM in test [2] (Homo sapiens, 3 h).

Regarding `CCOC(=O)C1(c2cccnc2)CN=C(Nc2c3c(cc4c2CCC4)CCC3)O1` (stereo not shown) [Example 11a, Ethyl 2-((1,2,3,5,6,7-hexahydro-s-indacen-4-yl)amino)-5-(pyridin-3-yl)-4,5-dihvdrooxazole-5-carboxylate], the IC50 in test [1] is less than 1000 nM; in test [2] (Homo sapiens, 3 h), less than 1000 nM.

Turning to `CC(C)(C)OC(=O)C1(c2ccno2)CN=C(Nc2c3c(cc4c2CCC4)CCC3)O1` (racemic) [Example 90, tert-butyl 2-((1,2,3,5,6,7-hexahydro-s-indacen-4-yl)amino)-5-(isoxazol-5-yl)-4,5-dihydrooxazole-5-carboxylate], the IC50 in test [1] was 1000 to 10000 nM; in test [2] (Homo sapiens, 3 h), less than 1000 nM.

Turning to `CCOC(=O)C1(c2ccccc2)CN=C(Nc2c3c(cc4c2CCC4)CCC3)O1` (stereo not shown) [Example 2, Ethyl 2-((1,2,3,5,6,7-hexahydro-s-indacen-4-yl)amino)-5-phenyl-4,5-dihvdrooxazole-5-carboxylate], the IC50 in test [1] and in test [2] was 1000 to 10000 nM throughout.

As to `CCOC(=O)C1(c2cccc(Cl)c2)CN=C(Nc2c3c(cc4c2CCC4)CCC3)O1` (single isomer, unassigned) [Example 13a, Ethyl 5-(3-chlorophenyl)-2-((1,2,3,5,6,7-hexahydro-s-indacen-4-yl)amino)-4,5-dihydrooxazole-5-carboxylate], the IC50 in test [1] and in test [2] was less than 1000 nM in each case.

For `CCOC(=O)C1(c2ccc(OC)nc2)CN=C(Nc2c3c(cc4c2CCC4)CCC3)O1` (stereo not shown) [Example 6, Ethyl 2-((1,2,3,5,6,7-hexahydro-s-indacen-4-yl)amino)-5-(6-methoxypyridin-3-yl)-4,5-dihydrooxazole-5-carboxylate], the IC50 in test [1] is less than 1000 nM; in test [2] (Homo sapiens, 3 h), less than 1000 nM.

With `CCOC(=O)C1(c2ccc(OC)nc2)CN=C(Nc2c3c(cc4c2CCC4)CCC3)O1` (single isomer, unassigned) [Example 7, Ethyl 2-((1,2,3,5,6,7-hexahydro-s-indacen-4-yl)amino)-5-(6-methoxypyridin-3-yl)-4,5-dihydrooxazole-5-carboxylate], the IC50 in test [1] and in test [2] was less than 1000 nM in each case.

As for `CCOC(=O)C1(c2ccccn2)CN=C(Nc2c3c(cc4c2CCC4)CCC3)O1` (racemic) [Example 8, Ethyl 2-((1,2,3,5,6,7-hexahydro-s-indacen-4-yl)amino)-5-(pyridin-2-yl)-4,5-dihydrooxazole-5-carboxylate], the IC50 in test [1] is less than 1000 nM; in test [2] (Homo sapiens, 3 h), less than 1000 nM.

Turning to `CCOC(=O)C1(c2cccnc2)CN=C(Nc2c3c(cc4c2CCC4)CCC3)O1` (single isomer, unassigned) [Example 11, Ethyl 2-((1,2,3,5,6,7-hexahydro-s-indacen-4-yl)amino)-5-(pyridin-3-yl)-4,5-dihydrooxazole-5-carboxylate], the concentration for half-maximal inhibition (IC50) in test [1] and in test [2] was less than 1000 nM each time.

Regarding `CCOC(=O)C1(c2ccccc2)CN=C(Nc2c3c(cc4c2CCC4)CCC3)O1` (racemic) [Example 1, Ethyl 2-((1,2,3,5,6,7-hexahydro-s-indacen-4-yl)amino)-5-phenyl-4,5-dihydrooxazole-5-carboxylate], the IC50 in test [1] is less than 1000 nM; in test [2] (Homo sapiens, 3 h), less than 1000 nM.

Take `CCOC(=O)C1(c2ccc(Cl)cc2)CN=C(Nc2c3c(cc4c2CCC4)CCC3)O1` (racemic) [Example 10, Ethyl 5-(4-chlorophenyl)-2-((1,2,3,5,6,7-hexahydro-s-indacene-4-yl)amino)-4,5-dihydrooxazole-5-carboxylate]: the IC50 is 1000 to 10000 nM in test [1] and 1000 to 10000 nM in test [2] (Homo sapiens, 3 h).

As for `CCOC(=O)C1(c2ccccn2)CN=C(Nc2c3c(cc4c2CCC4)CCC3)O1` (single isomer, unassigned) [Example 9, Ethyl 2-((1,2,3,5,6,7-hexahydro-s-indacen-4-yl)amino)-5-(pyridin-2-yl)-4,5-dihydrooxazole-5-carboxylate], the IC50 in test [1] and in test [2] was less than 1000 nM each time.

For `CCOC(=O)C1(c2nccn2C)CN=C(Nc2c3c(cc4c2CCC4)CCC3)O1` (single isomer, unassigned) [Example 5, Ethyl 2-((1,2,3,5,6,7-hexahydro-s-indacen-4-yl)amino)-5-(1-methyl-1H-imidazol-2-yl)-4,5-dihydrooxazole-5-carboxylate], the IC50 in test [1] and in test [2] was less than 1000 nM each time.

In the case of `CCOC(=O)C1(c2ccc(Cl)cc2)CN=C(Nc2c3c(cc4c2CCC4)CCC3)O1` (single isomer, unassigned) [Example 10a, Ethyl 5-(4-chlorophenyl)-2-((1,2,3,5,6,7-hexahydro-s-indacene-4-yl)amino)-4,5-dihydrooxazole-5-carboxylate], the IC50 in test [1] is less than 1000 nM; in test [2], 10000 to 30000 nM.

`CCOC(=O)C1(c2nccn2C)CN=C(Nc2c3c(cc4c2CCC4)CCC3)O1` (stereo not shown) [Example 4, Ethyl 2-((1,2,3,5,6,7-hexahydro-s-indacen-4-vl)amino)-5-(1-methyl-1H-imidazol-2-yl)-4,5-dihydrooxazole-5-carboxylate]: the IC50 in test [1] and in test [2] was less than 1000 nM throughout.

Regarding “2-((1,2,3,5,6,7-hexahydro-s-indacen-4-yl)amino)-5-(5-isopropylisoxazol-3-yl)-4,5-dihydrooxazole-5-carboxylate [Example 28]”, the IC50 in test [1] was less than 1000 nM; in test [2] it was 1000 to 10000 nM.

As for `CCOC(=O)C1(c2ccccc2)CN=C(Nc2c3c(c(F)c4c2CCC4)CCC3)O1` (racemic) [Example 30, ethyl 2-((8-fluoro-1,2,3,5,6,7-hexahydro-s-indacen-4-yl)amino)-5-phenyl-4,5-dihydrooxazole-5-carboxylate], the IC50 in test [1] is less than 1000 nM; in test [2] (Homo sapiens, 3 h), 1000 to 10000 nM.

Take `CCOC(=O)C1(c2cc(C(C)(C)O)on2)CN=C(Nc2c3c(cc4c2CCC4)CCC3)O1` (stereo not shown) [Example 15, Ethyl 2-((1,2,3,5,6,7-hexahvdro-s-indacen-4-yl)amino)-5-(5-(2-hydroxypropan-2-yl)isoxazol-3-yl)-4,5-dihydrooxazole-5-carboxylate]: the IC50 is less than 1000 nM in test [1] and less than 1000 nM in test [2] (Homo sapiens, 3 h).

`CCOC(=O)C1(c2nccs2)CN=C(Nc2c3c(cc4c2CCC4)CCC3)O1` (single isomer, unassigned) [Example 21, ethyl 2-((1,2,3,5,6,7-hexahydro-s-indacen-4-yl)amino)-5-(thiazol-2-yl)-4,5-dihydrooxazole-5-carboxylate] came in with a half-inhibitory concentration (IC50) in test [1] of less than 1000 nM.

In test [1], `CCOC(=O)C1(c2cnc(OC)nc2)CN=C(Nc2c3c(cc4c2CCC4)CCC3)O1` (racemic) [Example 32, ethyl 2-((1,2,3,5,6,7-hexahydro-s-indacen-4-yl)amino)-5-(2-methoxypyrimidin-5-yl)-4,5-dihydrooxazole-5-carboxylate] returned an IC50 of less than 1000 nM.

In test [1], `CCOC(=O)C1(c2cnccn2)CN=C(Nc2c3c(cc4c2CCC4)CCC3)O1` (racemic) [Example 49, ethyl 2-((1,2,3,5,6,7-hexahydro-s-indacen-4-yl)amino)-5-(pyrazin-2-yl)-4,5-dihydrooxazole-5-carboxylate] returned an IC50 of less than 1000 nM.

In test [1], `CC(C)OC(=O)C1(c2ccon2)CN=C(Nc2c3c(cc4c2CCC4)CCC3)O1` (stereo not shown) [Example 56, Isopropyl 2-((1,2,3,5,6,7-hexahydro-s-indacen-4-vl)amino)-5-(isoxazol-3-yl)-4,5-dihvdrooxazole-5-carboxylate] yielded an IC50 of less than 1000 nM.

`CCOC(=O)C1(c2ccco2)CN=C(Nc2c3c(cc4c2CCC4)CCC3)O1` (racemic) [Example 36, ethyl 5-(furan-2-yl)-2-((1,2,3,5,6,7-hexahydro-s-indacen-4-yl)amino)-4,5-dihydrooxazole-5-carboxylate]: the concentration for half-maximal inhibition (IC50) in test [1] fell in the range of 1000 to 10000 nM.

As to `CCOC(=O)C1(c2nccn2C)CN=C(Nc2c3c(c(F)c4c2CCC4)CCC3)O1` (racemic) [Example 37, ethyl 2-((8-fluoro-1,2,3,5,6,7-hexahydro-s-indacen-4-yl)amino)-5-(1-methyl-1H-imidazol-2-yl)-4,5-dihydrooxazole-5-carboxylate], in test [1], the IC50 was less than 1000 nM.

For orientation: IC50 means the concentration that gives 50% inhibition.
